Test results published in ChEMBL document CHEMBL5653631, “A Potent and Selective ULK1 Inhibitor Suppresses Autophagy and Sensitizes Cancer Cells to Nutrient Stress” (iScience, 2018).

Legend:
[1] = target: Calcium/calmodulin-dependent protein kinase kinase 2 (Homo sapiens) (UniProt Q96RR4); test: Inhibition of human recombinant CaMKK2 at 40 nM in presence of ATP by radiometric assay relative to control
[2] = target: Tyrosine-protein kinase Lck (Homo sapiens) (UniProt P06239); test: Inhibition of human recombinant LCK at 40 nM in presence of ATP by radiometric assay relative to control
[3] = target: Hepatocyte growth factor receptor MET (Homo sapiens) (UniProt P08581); test: Inhibition of human recombinant MET at 40 nM in presence of ATP by radiometric assay relative to control
[4] = target: Serine/threonine-protein kinase pim-1 (Homo sapiens) (UniProt P11309); test: Inhibition of human recombinant PIM1 at 500 nM in presence of ATP by radiometric assay relative to control
[5] = target: Calcium/calmodulin-dependent protein kinase type II subunit delta (Homo sapiens) (UniProt Q13557); test: Inhibition of human recombinant CaMK2d at 500 nM related to control ULK1
[6] = target: Mitogen-activated protein kinase kinase kinase 10 (Homo sapiens) (UniProt Q02779); test: Inhibition of human recombinant MLK2 at 500 nM related to control ULK1
[7] = target: T1, MAPK/MAK/MRK overlapping kinase (Homo sapiens) (UniProt Q9UQ07); test: Inhibition of human recombinant MOK at 500 nM related to control ULK1
T1 sequence (whole entry): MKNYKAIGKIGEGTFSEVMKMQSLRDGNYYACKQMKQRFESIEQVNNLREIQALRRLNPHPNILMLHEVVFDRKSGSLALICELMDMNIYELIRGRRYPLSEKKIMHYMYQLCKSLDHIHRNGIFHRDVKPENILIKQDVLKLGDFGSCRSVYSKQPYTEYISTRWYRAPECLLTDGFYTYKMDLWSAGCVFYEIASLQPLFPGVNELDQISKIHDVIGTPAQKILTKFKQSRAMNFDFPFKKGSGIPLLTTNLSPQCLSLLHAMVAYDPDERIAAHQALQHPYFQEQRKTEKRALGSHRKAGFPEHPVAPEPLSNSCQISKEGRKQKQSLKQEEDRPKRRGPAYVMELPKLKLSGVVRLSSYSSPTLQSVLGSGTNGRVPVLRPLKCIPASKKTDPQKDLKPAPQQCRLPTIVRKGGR

[8] = target: Cyclin-dependent kinase 6 (Homo sapiens) (UniProt Q00534); test: Inhibition of human recombinant CDK6 at 15 nM in presence of ATP by radiometric assay relative to control
[9] = target: T2, Ephrin type-B receptor 4 (Homo sapiens) (UniProt P54760); test: Inhibition of human recombinant EphB4 at 15 nM in presence of ATP by radiometric assay relative to control
T2 sequence (whole entry): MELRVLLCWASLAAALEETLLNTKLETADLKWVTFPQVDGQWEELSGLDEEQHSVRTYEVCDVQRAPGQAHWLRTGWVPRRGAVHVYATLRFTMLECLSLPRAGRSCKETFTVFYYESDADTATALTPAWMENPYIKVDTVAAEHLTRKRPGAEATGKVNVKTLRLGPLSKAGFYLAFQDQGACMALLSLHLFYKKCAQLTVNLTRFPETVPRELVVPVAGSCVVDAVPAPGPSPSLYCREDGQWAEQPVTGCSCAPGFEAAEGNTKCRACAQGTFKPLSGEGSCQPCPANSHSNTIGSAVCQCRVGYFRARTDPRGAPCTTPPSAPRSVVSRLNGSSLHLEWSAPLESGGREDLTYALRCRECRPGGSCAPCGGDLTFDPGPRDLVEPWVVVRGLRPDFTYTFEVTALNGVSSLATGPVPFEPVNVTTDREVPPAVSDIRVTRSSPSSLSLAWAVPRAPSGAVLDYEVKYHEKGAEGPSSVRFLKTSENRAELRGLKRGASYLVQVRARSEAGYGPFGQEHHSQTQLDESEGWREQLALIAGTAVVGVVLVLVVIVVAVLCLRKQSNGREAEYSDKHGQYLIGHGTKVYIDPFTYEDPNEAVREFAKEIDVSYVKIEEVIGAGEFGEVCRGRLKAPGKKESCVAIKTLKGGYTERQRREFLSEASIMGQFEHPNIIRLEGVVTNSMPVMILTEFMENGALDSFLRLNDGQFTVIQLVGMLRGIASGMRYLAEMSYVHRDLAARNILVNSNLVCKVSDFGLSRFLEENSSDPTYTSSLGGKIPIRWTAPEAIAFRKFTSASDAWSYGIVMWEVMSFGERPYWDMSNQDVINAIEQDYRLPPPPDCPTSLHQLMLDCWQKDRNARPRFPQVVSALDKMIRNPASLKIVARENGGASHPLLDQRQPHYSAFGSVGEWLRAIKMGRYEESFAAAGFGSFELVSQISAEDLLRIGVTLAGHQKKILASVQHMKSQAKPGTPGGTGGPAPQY

[10] = target: SRSF protein kinase 1 (Homo sapiens) (UniProt Q96SB4); test: Inhibition of human recombinant SRPK1 at 15 nM in presence of ATP by radiometric assay relative to control
[11] = target: Mitogen-activated protein kinase 9 (Homo sapiens) (UniProt P45984); test: Inhibition of human recombinant JNK2 at 15 nM related to control ULK1
[12] = target: Tyrosine-protein kinase Yes (Homo sapiens) (UniProt P07947); test: Inhibition of human recombinant YES at 15 nM related to control ULK1
Tyrosine-protein kinase Yes (Homo sapiens), sequence (P07947 2-543 limits assumed): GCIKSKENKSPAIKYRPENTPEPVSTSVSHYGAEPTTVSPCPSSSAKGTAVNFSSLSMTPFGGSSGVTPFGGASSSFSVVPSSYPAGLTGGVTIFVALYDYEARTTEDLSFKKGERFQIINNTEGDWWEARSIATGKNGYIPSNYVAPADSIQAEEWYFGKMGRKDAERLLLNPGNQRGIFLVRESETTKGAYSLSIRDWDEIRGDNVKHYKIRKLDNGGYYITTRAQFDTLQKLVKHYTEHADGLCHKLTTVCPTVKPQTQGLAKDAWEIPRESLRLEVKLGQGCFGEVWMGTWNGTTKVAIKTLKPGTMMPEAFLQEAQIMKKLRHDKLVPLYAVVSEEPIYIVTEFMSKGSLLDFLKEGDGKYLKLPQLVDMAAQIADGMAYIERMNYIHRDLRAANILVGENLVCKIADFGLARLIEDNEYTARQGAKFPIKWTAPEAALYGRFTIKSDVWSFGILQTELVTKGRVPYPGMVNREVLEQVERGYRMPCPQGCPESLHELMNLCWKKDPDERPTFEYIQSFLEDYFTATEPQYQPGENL

Tyrosine-protein kinase Lck (Homo sapiens), sequence (P06239 2-509 limits assumed): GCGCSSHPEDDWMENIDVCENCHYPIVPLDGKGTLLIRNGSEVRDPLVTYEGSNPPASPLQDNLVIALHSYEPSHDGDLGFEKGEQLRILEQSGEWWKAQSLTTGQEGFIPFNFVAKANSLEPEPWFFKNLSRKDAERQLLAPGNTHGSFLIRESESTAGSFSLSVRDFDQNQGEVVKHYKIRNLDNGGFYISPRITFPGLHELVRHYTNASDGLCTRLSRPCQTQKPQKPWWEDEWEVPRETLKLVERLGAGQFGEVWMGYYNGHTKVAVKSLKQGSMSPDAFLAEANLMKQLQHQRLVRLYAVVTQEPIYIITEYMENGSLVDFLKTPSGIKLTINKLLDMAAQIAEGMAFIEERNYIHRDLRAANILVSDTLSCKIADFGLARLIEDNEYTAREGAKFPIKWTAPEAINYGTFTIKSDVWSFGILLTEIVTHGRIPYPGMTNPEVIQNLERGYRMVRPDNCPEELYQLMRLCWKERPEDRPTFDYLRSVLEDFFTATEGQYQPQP
Cyclin-dependent kinase 6 (Homo sapiens), sequence (Q00534 whole entry): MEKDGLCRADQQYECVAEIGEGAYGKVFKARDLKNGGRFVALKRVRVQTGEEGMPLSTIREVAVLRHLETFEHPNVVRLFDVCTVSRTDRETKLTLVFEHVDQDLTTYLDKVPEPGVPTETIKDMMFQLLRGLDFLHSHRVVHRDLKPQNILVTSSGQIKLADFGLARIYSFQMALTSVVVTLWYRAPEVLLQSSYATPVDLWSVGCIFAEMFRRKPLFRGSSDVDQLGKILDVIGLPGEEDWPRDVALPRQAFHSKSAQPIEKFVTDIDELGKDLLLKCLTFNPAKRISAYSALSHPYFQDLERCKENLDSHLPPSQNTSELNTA
Calcium/calmodulin-dependent protein kinase type II subunit delta (Homo sapiens), sequence (Q13557 whole entry): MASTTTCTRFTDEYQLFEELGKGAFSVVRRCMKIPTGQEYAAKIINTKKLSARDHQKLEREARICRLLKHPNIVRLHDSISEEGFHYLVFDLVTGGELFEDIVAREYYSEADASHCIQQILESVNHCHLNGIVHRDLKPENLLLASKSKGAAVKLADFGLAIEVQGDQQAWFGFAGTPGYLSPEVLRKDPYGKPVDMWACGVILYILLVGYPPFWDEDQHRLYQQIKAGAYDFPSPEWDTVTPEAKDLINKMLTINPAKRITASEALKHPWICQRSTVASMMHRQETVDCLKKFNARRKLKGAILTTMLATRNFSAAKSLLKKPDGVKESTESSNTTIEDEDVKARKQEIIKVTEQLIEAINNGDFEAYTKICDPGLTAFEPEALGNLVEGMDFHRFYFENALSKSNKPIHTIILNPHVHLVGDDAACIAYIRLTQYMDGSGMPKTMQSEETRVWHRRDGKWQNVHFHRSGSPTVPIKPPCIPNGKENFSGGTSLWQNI
SRSF protein kinase 1 (Homo sapiens), sequence (Q96SB4 whole entry): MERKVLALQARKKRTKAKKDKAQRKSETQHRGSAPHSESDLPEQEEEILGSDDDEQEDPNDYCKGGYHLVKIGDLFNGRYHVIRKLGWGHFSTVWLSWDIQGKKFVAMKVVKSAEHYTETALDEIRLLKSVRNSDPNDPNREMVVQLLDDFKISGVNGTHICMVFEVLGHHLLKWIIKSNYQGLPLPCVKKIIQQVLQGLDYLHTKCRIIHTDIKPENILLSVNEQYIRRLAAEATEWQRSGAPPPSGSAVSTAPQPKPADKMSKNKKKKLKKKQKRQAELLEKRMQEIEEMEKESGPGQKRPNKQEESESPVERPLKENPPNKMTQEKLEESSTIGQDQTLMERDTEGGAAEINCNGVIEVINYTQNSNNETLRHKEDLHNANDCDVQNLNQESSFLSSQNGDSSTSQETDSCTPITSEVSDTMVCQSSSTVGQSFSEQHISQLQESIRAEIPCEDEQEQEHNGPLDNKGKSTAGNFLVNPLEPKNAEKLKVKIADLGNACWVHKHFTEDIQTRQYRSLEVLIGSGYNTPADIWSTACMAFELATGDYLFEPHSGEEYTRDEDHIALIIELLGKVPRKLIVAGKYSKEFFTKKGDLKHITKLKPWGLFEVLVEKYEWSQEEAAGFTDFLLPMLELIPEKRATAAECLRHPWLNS
Calcium/calmodulin-dependent protein kinase kinase 2 (Homo sapiens), sequence (Q96RR4 2-588 limits assumed): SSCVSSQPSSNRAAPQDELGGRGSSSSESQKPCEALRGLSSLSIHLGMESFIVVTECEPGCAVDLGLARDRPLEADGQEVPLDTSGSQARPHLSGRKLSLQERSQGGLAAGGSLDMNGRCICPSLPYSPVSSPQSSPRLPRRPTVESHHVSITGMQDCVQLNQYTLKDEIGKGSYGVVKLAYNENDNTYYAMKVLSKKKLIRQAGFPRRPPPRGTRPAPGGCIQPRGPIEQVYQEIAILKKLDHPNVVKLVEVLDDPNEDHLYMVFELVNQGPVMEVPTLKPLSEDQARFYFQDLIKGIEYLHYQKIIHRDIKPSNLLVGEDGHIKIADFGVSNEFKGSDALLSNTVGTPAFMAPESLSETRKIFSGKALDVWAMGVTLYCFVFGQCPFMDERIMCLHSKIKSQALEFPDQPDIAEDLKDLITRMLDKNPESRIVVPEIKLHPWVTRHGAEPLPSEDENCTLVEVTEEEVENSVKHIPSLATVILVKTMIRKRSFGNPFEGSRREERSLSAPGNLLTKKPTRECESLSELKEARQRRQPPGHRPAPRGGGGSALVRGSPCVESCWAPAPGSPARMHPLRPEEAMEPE
Mitogen-activated protein kinase 9 (Homo sapiens), sequence (P45984 whole entry, looked up): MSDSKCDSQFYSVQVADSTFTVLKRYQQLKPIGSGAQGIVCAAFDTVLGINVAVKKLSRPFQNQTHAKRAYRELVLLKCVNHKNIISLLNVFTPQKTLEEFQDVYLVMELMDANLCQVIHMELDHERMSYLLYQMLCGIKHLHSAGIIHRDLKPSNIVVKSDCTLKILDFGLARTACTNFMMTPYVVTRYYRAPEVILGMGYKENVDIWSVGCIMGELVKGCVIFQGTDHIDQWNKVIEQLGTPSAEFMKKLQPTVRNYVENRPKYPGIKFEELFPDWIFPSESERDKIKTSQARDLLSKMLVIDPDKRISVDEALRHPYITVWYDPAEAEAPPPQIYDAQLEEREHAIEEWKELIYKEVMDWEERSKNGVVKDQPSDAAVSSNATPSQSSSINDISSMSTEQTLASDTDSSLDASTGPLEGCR
Serine/threonine-protein kinase pim-1 (Homo sapiens), sequence (P11309 whole entry, looked up): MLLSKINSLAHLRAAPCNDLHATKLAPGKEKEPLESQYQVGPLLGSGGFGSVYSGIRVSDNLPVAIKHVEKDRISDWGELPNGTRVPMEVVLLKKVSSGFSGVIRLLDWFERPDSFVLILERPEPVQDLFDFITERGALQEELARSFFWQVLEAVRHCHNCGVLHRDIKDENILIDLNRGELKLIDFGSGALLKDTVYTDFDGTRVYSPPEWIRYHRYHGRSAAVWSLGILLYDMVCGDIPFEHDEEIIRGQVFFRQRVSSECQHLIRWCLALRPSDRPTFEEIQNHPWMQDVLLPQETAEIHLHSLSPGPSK
Mitogen-activated protein kinase kinase kinase 10 (Homo sapiens), sequence (Q02779 whole entry, looked up): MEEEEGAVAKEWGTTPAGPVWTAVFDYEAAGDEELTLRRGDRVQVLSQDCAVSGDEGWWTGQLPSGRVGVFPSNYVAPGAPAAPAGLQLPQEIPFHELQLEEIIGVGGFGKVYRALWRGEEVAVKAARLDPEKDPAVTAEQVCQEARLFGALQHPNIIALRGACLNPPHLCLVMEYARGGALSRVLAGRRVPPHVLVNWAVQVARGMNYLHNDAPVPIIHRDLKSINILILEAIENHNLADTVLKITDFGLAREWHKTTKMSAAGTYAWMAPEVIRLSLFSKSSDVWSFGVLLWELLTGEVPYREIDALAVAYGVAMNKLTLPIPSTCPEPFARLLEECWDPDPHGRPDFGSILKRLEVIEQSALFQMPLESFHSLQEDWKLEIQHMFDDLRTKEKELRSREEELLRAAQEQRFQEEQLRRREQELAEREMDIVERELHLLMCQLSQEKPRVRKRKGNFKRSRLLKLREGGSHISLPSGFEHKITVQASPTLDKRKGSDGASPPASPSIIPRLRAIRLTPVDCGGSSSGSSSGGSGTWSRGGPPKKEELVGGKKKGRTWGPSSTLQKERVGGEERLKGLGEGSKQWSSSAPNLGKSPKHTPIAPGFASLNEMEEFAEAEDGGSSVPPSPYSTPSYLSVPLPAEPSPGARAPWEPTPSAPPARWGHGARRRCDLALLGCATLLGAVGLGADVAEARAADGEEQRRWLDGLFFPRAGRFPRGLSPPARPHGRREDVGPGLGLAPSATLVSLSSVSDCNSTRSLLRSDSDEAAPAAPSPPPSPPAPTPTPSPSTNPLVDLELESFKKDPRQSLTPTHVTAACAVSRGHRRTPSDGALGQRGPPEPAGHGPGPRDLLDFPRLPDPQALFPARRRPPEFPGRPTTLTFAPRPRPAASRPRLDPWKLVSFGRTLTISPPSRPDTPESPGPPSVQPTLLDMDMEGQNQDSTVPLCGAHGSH

In the case of `O=C(N[C@@H](C1CC1)C(F)(F)F)c1cc(-c2cnn3cc(-c4ccc(F)cc4)cnc23)cs1`, the inhibition [1] is reported as 0%, the inhibition [2] is reported as 0% and the inhibition [3] is reported as 16%.

With `CNC(=O)c1ccccc1Oc1nc(Nc2cc(OC)c(OC)c(OC)c2)ncc1Br` the inhibition [4] was 2%, the fold change (FC) [5] was 0.12 and the fold change (FC) [6] was 0.95. For the same compound, the fold change (FC) [7] was 0.03.

`CC(C)[C@H](NC(=O)c1cc(-c2cnn3cc(-c4ccc(OCCN5CCCCC5)cc4)cnc23)cs1)C(F)(F)F` gave an inhibition [8] of 8%, an inhibition [9] of 3% and an inhibition [10] of 0%. The fold change (FC) [11] was 0 and the fold change (FC) [12] was 0.86.
